These molecules were tested against JAK3 JH1 kinase (Homo sapiens, UniProt P52333) (assay: JAK3 JH1 enzyme assay in vitro (TR-FRET)). Details: TR-FRET; read-out: JAK 3 JH1 IC50.
Type: biochemical

Sequence of JAK3 JH1 kinase (P52333 822-1111 limits assumed): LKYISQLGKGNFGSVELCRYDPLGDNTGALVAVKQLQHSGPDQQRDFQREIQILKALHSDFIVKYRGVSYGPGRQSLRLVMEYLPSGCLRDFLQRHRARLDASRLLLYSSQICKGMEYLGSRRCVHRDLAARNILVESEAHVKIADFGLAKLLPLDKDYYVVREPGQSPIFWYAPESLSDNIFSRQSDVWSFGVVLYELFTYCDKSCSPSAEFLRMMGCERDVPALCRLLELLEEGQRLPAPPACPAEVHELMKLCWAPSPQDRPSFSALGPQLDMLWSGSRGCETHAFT

Row | SMILES | IC50 [nM]
1 | [2H]C([2H])([2H])NC(=O)c1cnc(NC(=O)C2CC2)cc1Nc1cccc(C(=O)Nc2cccc(C)c2)c1OC [Example 55] | > 10000
2 | [2H]C([2H])([2H])NC(=O)c1nnc(NC(=O)C2CC2)cc1Nc1cccc(C(=O)Nc2ccc(C)c(C)c2)c1OC [Example 4] | > 10000
3 | [2H]C([2H])([2H])NC(=O)c1cnc(NC(=O)C2CC2)cc1Nc1cccc(C(=O)Nc2cnn(C)c2)c1OC [Example 86] | > 10000
4 | [2H]C([2H])([2H])NC(=O)c1cnc(NC(=O)C2CC2)cc1Nc1cccc(C(=O)Nc2ccc(C)cc2)c1OC [Example 54] | > 10000

What follows are molecules tested against T1, hERG channel (Homo sapiens, UniProt Q12809) (assay: hERG potassium channel inhibition assay (manual patch clamp)). Details: HEK-293 cell line stably expressing hERG channel, at the tested concentrations.
T1 construct: expressed in transfected cells; host or cells: HEK-293
T1 sequence (Q12809 whole entry): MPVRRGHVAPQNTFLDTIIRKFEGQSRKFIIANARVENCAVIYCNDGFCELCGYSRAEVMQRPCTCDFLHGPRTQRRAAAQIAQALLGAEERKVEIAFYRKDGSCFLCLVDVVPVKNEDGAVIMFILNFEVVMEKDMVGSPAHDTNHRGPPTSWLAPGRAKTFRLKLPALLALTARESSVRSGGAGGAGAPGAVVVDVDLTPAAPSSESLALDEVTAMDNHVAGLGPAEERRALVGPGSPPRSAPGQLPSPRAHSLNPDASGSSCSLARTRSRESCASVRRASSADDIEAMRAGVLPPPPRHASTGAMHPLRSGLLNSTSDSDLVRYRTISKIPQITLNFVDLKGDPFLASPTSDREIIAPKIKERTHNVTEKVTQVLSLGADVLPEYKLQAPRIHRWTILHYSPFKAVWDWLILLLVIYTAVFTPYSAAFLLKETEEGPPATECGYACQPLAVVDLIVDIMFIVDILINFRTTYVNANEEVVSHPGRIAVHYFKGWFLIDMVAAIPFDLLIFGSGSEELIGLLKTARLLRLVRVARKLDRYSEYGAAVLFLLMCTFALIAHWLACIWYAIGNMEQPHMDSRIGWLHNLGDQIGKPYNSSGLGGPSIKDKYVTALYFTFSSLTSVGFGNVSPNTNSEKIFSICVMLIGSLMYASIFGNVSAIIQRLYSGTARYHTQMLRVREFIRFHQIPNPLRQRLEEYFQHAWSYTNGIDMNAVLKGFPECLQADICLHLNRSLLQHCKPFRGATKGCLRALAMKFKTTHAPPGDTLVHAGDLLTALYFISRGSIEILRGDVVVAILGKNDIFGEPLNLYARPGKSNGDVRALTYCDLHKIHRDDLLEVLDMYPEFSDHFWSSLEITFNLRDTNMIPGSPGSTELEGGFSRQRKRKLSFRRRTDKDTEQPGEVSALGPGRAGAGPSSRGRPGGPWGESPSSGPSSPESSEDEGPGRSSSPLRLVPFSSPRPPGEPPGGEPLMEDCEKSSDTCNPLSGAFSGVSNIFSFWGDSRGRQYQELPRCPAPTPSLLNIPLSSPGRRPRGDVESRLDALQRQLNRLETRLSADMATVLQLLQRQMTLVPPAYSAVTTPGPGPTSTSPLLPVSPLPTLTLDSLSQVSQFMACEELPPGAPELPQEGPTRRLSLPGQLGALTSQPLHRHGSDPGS
Type: cell-based
Method: Instrumentation: HEKA EPC 10 patch clamp amplifier.
Method: in this experiment, the blocking effect of the compounds on the current of the HEK-293 cell line stably expressing hERG channel was measured using the manual patch clamp technique, and the risk of the compounds on the inhibition of cardiac hERG potassium channel was assessed by fitting the concentration effect relationship.
Procedure: in the patch clamp operation, firstly, a capillary glass tube was pulled into a recording electrode using a microelectrode puller, then an electrode filled with intracellular solution was mounted into a microelectrode holder. A microelectrode manipulator was operated under an inverted microscope to immerse the electrode into an extracellular solution and the electrode resistance (Rpip) was recorded. Then, the electrode was slowly brought into contact with the cell surface, and a negative pressure was applied for suction to form a GΩ seal. At this point, a fast capacitance compensation was performed, and a negative pressure was continuously applied to suck and break the cell membrane to form a whole cell recording mode. Finally, a slow capacitance compensation was performed and experimental parameters including series resistance (Rs) and the like were recorded. No leakage compensation was performed. When the hERG current recorded by the whole cell was stable, the administration of drugs commenced, and each drug concentration acted for about 5 min (or until the current stabilization) before detecting the next concentration. A cover glass covered with cells was placed in a recording bath under an inverted microscope, the blank control extracellular solution and the working solution of the compounds to be tested sequentially flowed through the recording bath from low concentration to high concentration by using gravity perfusion to act on the cells, and solution exchange was performed using a peristaltic pump during recording. The current measured by each cell in the extracellular solution without the compound served as its own control group. Each concentration was independently assessed twice. All electrophysiological tests were performed at room temperature.
Data Analysis: firstly, the tail current (Peak tail currentcompound) after the action of each drug concentration and the blank control tail current (Peak tail currentcontrol) were normalized, then the inhibition rate
corresponding to each drug concentration was calculated, and the mean (Mean), standard deviation (SD) and standard error (SE) of the inhibition rate corresponding to each concentration were calculated, with data expressed as Mean±SE. The calculation of IC50 value and the fitting of dose-response curve for the compound were performed using GraphPad Prism software.

Row | SMILES | hERG inhibition
5 | [2H]C([2H])([2H])NC(=O)c1cnc(NC(=O)C2CC2)cc1Nc1cccc(C(=O)Nc2cccc(C)c2)c1OC [Example 55] | no significant inhibition
6 | [2H]C([2H])([2H])NC(=O)c1nnc(NC(=O)C2CC2)cc1Nc1cccc(C(=O)Nc2ccc(C)c(C)c2)c1OC [Example 4] | no significant inhibition
7 | [2H]C([2H])([2H])NC(=O)c1cnc(NC(=O)C2CC2)cc1Nc1cccc(C(=O)Nc2cnn(C)c2)c1OC [Example 86] | no significant inhibition
8 | [2H]C([2H])([2H])NC(=O)c1cnc(NC(=O)C2CC2)cc1Nc1cccc(C(=O)Nc2ccc(C)cc2)c1OC [Example 54] | no significant inhibition

Each molecule was assayed against TYK2 JH2 pseudokinase (Homo sapiens, UniProt P29597) (assay: TYK2 JH2 enzyme binding assay in vitro (TR-FRET)). Details: not given.
Sequence of TYK2 JH2 pseudokinase (P29597 589-875 limits assumed): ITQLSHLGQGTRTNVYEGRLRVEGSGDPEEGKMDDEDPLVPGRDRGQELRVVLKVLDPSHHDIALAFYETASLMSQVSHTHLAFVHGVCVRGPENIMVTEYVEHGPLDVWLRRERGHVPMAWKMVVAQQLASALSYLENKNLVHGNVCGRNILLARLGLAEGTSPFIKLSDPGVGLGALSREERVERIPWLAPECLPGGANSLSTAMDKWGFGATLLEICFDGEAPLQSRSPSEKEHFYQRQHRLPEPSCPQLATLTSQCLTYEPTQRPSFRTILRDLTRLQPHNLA
Method: Instrumentation: Envision microplate reader (PerkinElmer), ECHO550 (LABCYTE).
Method: the inhibitory effects of compounds on TYK2 JH2 pseudokinase was tested using time-resolved fluorescence resonance energy transfer (TR-FRET) method.
Procedure: compounds were prepared into 10 mM stock solutions using DMSO, which were further diluted into compound dilutions (200×) with different concentration gradients in DMSO, and the compound dilutions (200×) were transferred to a 384-well assay plate using an Echo instrument. […] TYK2 JH2 pseudokinase, Tb antibody, and Tracer working solutions were prepared using the dilution buffer, respectively. 5 uL of TYK2 JH2 pseudokinase working solution (final concentration 0.5 nM) was added to a 384-well assay plate, and centrifuged at 1000 rpm for 30 s. 5 uL of Tb antibody (final concentration 1×) was added to the 384-well assay plate, and centrifuged at 1000 rpm for 30 s. 5 uL of Tracer (final concentration 0.5 nM) was added to the 384-well assay plate, and centrifuged at 1000 rpm for 30 s. Incubation was performed at room temperature for 60 min, and then at 4° C. overnight.
Data Analysis: XLfit, a software developed by IDBS and integrated into the Microsoft Excel environment, was used to process and analyze the test data.

Row | SMILES | IC50 [nM]
9 | [2H]C([2H])([2H])NC(=O)c1cnc(NC(=O)C2CC2)cc1Nc1cccc(C(=O)Nc2cccc(C)c2)c1OC [Example 55] | 0.298
10 | [2H]C([2H])([2H])NC(=O)c1nnc(NC(=O)C2CC2)cc1Nc1cccc(C(=O)Nc2ccc(C)c(C)c2)c1OC [Example 4] | 0.293
11 | [2H]C([2H])([2H])NC(=O)c1cnc(NC(=O)C2CC2)cc1Nc1cccc(C(=O)Nc2cnn(C)c2)c1OC [Example 86] | 0.299
12 | [2H]C([2H])([2H])NC(=O)c1cnc(NC(=O)C2CC2)cc1Nc1cccc(C(=O)Nc2ccc(C)cc2)c1OC [Example 54] | 0.302

These molecules were tested against JAK1 JH1 kinase (Homo sapiens, UniProt P23458) (assay: JAK1 JH1 enzyme assay in vitro (TR-FRET)). Details: read-out: JAK 1 JH1 IC50.
Sequence of JAK1 JH1 kinase (P23458 875-1153 limits assumed): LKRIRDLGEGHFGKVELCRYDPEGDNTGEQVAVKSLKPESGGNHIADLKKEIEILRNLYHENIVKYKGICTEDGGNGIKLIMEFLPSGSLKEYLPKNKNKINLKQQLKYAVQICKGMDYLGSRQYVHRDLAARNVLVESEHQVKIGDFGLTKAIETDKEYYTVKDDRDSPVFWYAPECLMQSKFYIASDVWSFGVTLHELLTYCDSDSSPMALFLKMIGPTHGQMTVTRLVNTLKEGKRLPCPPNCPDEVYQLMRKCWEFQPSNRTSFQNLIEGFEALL
Type: biochemical

Row | SMILES | IC50 [nM]
13 | [2H]C([2H])([2H])NC(=O)c1cnc(NC(=O)C2CC2)cc1Nc1cccc(C(=O)Nc2cccc(C)c2)c1OC [Example 55] | > 10000
14 | [2H]C([2H])([2H])NC(=O)c1nnc(NC(=O)C2CC2)cc1Nc1cccc(C(=O)Nc2ccc(C)c(C)c2)c1OC [Example 4] | > 10000
15 | [2H]C([2H])([2H])NC(=O)c1cnc(NC(=O)C2CC2)cc1Nc1cccc(C(=O)Nc2cnn(C)c2)c1OC [Example 86] | > 10000
16 | [2H]C([2H])([2H])NC(=O)c1cnc(NC(=O)C2CC2)cc1Nc1cccc(C(=O)Nc2ccc(C)cc2)c1OC [Example 54] | > 10000

Each molecule was assayed against Ba/F3 cell line expressing TYK2 (Homo sapiens, UniProt P29597, cells depend on it, form not given) (assay: In vitro cellular inhibition assay (Ba/F3 cell proliferation, CellTiter-Glo)). Details: read-out: IC50 (the source's name).
Type: cell-based
In short: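 Ba/F3 cells dependent on TYK2 were exposed to serially diluted compound, then viability was read by CellTiter-Glo luminescence. Inhibition (%) was calculated from RLU relative to max and min controls, and IC50 was obtained by curve fitting.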

Row | SMILES | GI50 [nM]
17 | [2H]C([2H])([2H])NC(=O)c1cnc(NC(=O)C2CC2)cc1Nc1cccc(C(=O)Nc2cccc(C)c2)c1OC [Example 55] | 1 to 5
18 | [2H]C([2H])([2H])NC(=O)c1nnc(NC(=O)C2CC2)cc1Nc1cccc(C(=O)Nc2ccc(C)c(C)c2)c1OC [Example 4] | 1 to 5
19 | [2H]C([2H])([2H])NC(=O)c1cnc(NC(=O)C2CC2)cc1Nc1cccc(C(=O)Nc2cnn(C)c2)c1OC [Example 86] | 1 to 5
20 | [2H]C([2H])([2H])NC(=O)c1cnc(NC(=O)C2CC2)cc1Nc1cccc(C(=O)Nc2ccc(C)cc2)c1OC [Example 54] | 1 to 5

These molecules were tested on imiquimod-induced mouse psoriasis-like model (assay: Imiquimod-induced mouse psoriasis-like model (PASI score)). Details: oral gavage, 10 mg/kg, 25 mg/kg, 50 mg/kg, bid, compared with the model group.
Type: in vivo

Row | SMILES | Improvement of psoriasis symptoms by oral administration
21 | [2H]C([2H])([2H])NC(=O)c1cnc(NC(=O)C2CC2)cc1Nc1cccc(C(=O)Nc2cccc(C)c2)c1OC [Example 55] | effectively improve psoriasis symptoms
22 | [2H]C([2H])([2H])NC(=O)c1nnc(NC(=O)C2CC2)cc1Nc1cccc(C(=O)Nc2ccc(C)c(C)c2)c1OC [Example 4] | effectively improve psoriasis symptoms
23 | [2H]C([2H])([2H])NC(=O)c1cnc(NC(=O)C2CC2)cc1Nc1cccc(C(=O)Nc2cnn(C)c2)c1OC [Example 86] | effectively improve psoriasis symptoms
24 | [2H]C([2H])([2H])NC(=O)c1cnc(NC(=O)C2CC2)cc1Nc1cccc(C(=O)Nc2ccc(C)cc2)c1OC [Example 54] | effectively improve psoriasis symptoms

What follows are molecules tested against T2, TYK2 JH1 kinase (Homo sapiens, UniProt P29597) (assay: TYK2 JH1 enzyme assay in vitro (TR-FRET)). Details: not given.
T2 sequence (P29597 897-1176 limits assumed): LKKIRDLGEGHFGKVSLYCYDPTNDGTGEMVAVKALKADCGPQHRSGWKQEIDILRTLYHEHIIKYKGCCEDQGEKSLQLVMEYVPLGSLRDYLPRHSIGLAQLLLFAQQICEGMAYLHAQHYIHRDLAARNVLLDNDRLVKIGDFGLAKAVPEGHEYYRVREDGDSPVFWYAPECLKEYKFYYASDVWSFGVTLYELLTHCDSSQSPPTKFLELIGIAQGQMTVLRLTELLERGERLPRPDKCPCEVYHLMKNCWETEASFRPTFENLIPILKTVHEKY
Type: biochemical

Row | SMILES | IC50 [nM]
25 | [2H]C([2H])([2H])NC(=O)c1cnc(NC(=O)C2CC2)cc1Nc1cccc(C(=O)Nc2cccc(C)c2)c1OC [Example 55] | > 10000
26 | [2H]C([2H])([2H])NC(=O)c1nnc(NC(=O)C2CC2)cc1Nc1cccc(C(=O)Nc2ccc(C)c(C)c2)c1OC [Example 4] | > 10000
27 | [2H]C([2H])([2H])NC(=O)c1cnc(NC(=O)C2CC2)cc1Nc1cccc(C(=O)Nc2cnn(C)c2)c1OC [Example 86] | > 10000
28 | [2H]C([2H])([2H])NC(=O)c1cnc(NC(=O)C2CC2)cc1Nc1cccc(C(=O)Nc2ccc(C)cc2)c1OC [Example 54] | > 10000

The molecules below were run against JAK2 JH1 kinase (Homo sapiens, UniProt O60674) (assay: JAK2 JH1 enzyme assay in vitro (TR-FRET)). Details: read-out: JAK 2 JH1 IC50.
Sequence of JAK2 JH1 kinase (O60674 849-1124 limits assumed): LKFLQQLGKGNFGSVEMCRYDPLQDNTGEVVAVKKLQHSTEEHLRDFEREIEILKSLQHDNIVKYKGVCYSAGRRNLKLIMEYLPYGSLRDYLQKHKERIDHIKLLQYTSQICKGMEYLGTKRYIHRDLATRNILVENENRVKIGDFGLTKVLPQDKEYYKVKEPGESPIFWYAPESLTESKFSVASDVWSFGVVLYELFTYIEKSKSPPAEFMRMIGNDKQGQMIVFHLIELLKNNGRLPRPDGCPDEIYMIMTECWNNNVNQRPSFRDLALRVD
Type: biochemical

Row | SMILES | IC50 [nM]
29 | [2H]C([2H])([2H])NC(=O)c1cnc(NC(=O)C2CC2)cc1Nc1cccc(C(=O)Nc2cccc(C)c2)c1OC [Example 55] | > 10000
30 | [2H]C([2H])([2H])NC(=O)c1nnc(NC(=O)C2CC2)cc1Nc1cccc(C(=O)Nc2ccc(C)c(C)c2)c1OC [Example 4] | > 10000
31 | [2H]C([2H])([2H])NC(=O)c1cnc(NC(=O)C2CC2)cc1Nc1cccc(C(=O)Nc2cnn(C)c2)c1OC [Example 86] | > 10000
32 | [2H]C([2H])([2H])NC(=O)c1cnc(NC(=O)C2CC2)cc1Nc1cccc(C(=O)Nc2ccc(C)cc2)c1OC [Example 54] | > 10000

These molecules were tested against JAK1 JH2 pseudokinase (Homo sapiens, UniProt P23458) (assay: JAK1 JH2 enzyme binding assay in vitro (TR-FRET)). Details: read-out: JAK 1 JH2 IC50.
Sequence of JAK1 JH2 pseudokinase (P23458 583-855 limits assumed): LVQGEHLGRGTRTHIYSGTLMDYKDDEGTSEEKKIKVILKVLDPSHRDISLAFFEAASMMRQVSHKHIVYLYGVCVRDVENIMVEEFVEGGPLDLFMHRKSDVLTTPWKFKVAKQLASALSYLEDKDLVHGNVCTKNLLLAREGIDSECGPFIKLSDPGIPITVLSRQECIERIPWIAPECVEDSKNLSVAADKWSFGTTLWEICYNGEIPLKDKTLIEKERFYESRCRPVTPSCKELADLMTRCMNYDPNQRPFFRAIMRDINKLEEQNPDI
Method: Instrumentation: Envision microplate reader (PerkinElmer), Echo (LABCYTE)
Method: in this experiment, the inhibitory effects of compounds on JAK1 JH2 pseudokinase was tested using time-resolved fluorescence resonance energy transfer (TR-FRET) method.
Procedure: compounds were prepared into 10 mM stock solutions using DMSO, which were further diluted into compound dilutions with different concentration gradients in DMSO, and the compound dilutions with 200× final concentration were transferred to a 384-well assay plate using an Echo instrument. The preparation of the following 1× assay working solution: HEPES pH7.5 at a final concentration of 20 mM, MgCl2 at a final concentration of 10 mM, Brij-35 at a final concentration of 0.015%, DTT at a final concentration of 2 mM, BSA at a final concentration of 50 ug/mL. JAK1 JH2 pseudokinase with 3× final concentration, Tb antibody and Tracer were prepared using their respective 1× working solution. 5 uL of JAK1 JH2 pseudokinase was added to a 384-well assay plate, and centrifuged at 1000 rpm for 30 s. 5 uL of Tb antibody was added to the 384-well assay plate, and centrifuged at 1000 rpm for 30 s. 5 uL of Tracer was added to the 384-well assay plate, and centrifuged at 1000 rpm for 30 s. Incubation was performed at room temperature for 60 min, and then at 4° C. overnight. Finally, the 495 nm/520 nm fluorescence signal ratio was measured using the Envision microplate reader (PerkinElmer).
Data Analysis: XLfit, a software developed by IDBS and integrated into the Microsoft Excel environment, was used to process and analyze the test data. […] Thereafter, the concentration and corresponding inhibition rate data were imported into the XLfit software, and the Dose Response One Site 205 model within the software was employed to fit the inhibition rate-concentration curve by four-parameter method, and the IC50 value of the compound was calculated.

Row | SMILES | IC50 [nM]
33 | [2H]C([2H])([2H])NC(=O)c1cnc(NC(=O)C2CC2)cc1Nc1cccc(C(=O)Nc2cccc(C)c2)c1OC [Example 55] | 3.3
34 | [2H]C([2H])([2H])NC(=O)c1nnc(NC(=O)C2CC2)cc1Nc1cccc(C(=O)Nc2ccc(C)c(C)c2)c1OC [Example 4] | 5.33
35 | [2H]C([2H])([2H])NC(=O)c1cnc(NC(=O)C2CC2)cc1Nc1cccc(C(=O)Nc2cnn(C)c2)c1OC [Example 86] | 17.6
36 | [2H]C([2H])([2H])NC(=O)c1cnc(NC(=O)C2CC2)cc1Nc1cccc(C(=O)Nc2ccc(C)cc2)c1OC [Example 54] | 4.56

Source: patent US20260098017A1, “NOVEL AROMATIC RING DERIVATIVE CONTAINING AMIDE SUBSTITUTION AND USE THEREOF” (TIANJIN PHARMACEUTICAL BIOTECHNOLOGY CO., LTD., priority 2022, published 2026)
